Values after ≈ are worked out from the molar mass of the structure shown.
Columns and labels:
Bacillus subtilis [1] = test: Inhibition zone, agar plate diffusion; type: cell-based; conditions: read-out: Inhibition zone (IZ)
Protocol: (§1) Antimicrobial activities of the newly formed Schiff bases (6a–d, 7a–d, 8a–d, and 9a–d) and reference drugs were evaluated against three Gram-positive, three Gram-negative, and two fungi strain at Al-Azhar University, Cairo, Egypt. The inhibition zones (IZ, in mm ± standard deviation) and the minimal inhibitory concentration (MIC) (μg/mL) were determined by the conventional paper disk diffusion method.
(§2) In Vitro Antimicrobial Activities
(§3) The antimicrobial activities inhibition zone (IZ, mm±standard deviation) of pyrazole Schiff bases ( 6a-d , 7a-d, 8a-d and 9a-d ) was measurement according to the agar plate diffusion method. Briefly, 100 µl of the […]
(§4) […] of each sample (at 0.5 mg/mL) was added to each well (10 mm diameter holes cut in the agar gel). The plates were incubated for 24 h at 37 °C (for bacteria and yeast) and for 72 h at 27 °C (for filamentous fungi), each test was repeated three times. After incubation, the microorganism's growth was observed. […]
(§5) drugs while Amphotericin B was used as standard antifungal drug. The resulting inhibition zone diameters were measured in millimeters and used as criterion for the antimicrobial activity. Solvent controls (DMSO) were included in every experiment as negative controls. DMSO was used for dissolving […]
(§6) the tested microorganisms. […]

Enterococcus faecalis [2] = test: Inhibition zone, agar plate diffusion; type: cell-based; conditions: read-out: Inhibition zone (IZ)
Protocol: as §1, §2, §3, §4, §5, §6

Escherichia coli [3] = test: Inhibition zone, agar plate diffusion; type: cell-based; conditions: read-out: Inhibition zone (IZ)
Protocol: as §1, §2, §3, §4, §5, §6

Pseudomonas aeruginosa [4] = test: Inhibition zone, agar plate diffusion; type: cell-based; conditions: read-out: Inhibition zone (IZ)
Protocol: as §1, §2, §3, §4, §5, §6

Candida albicans [5] = test: Inhibition zone, agar plate diffusion; type: cell-based; conditions: read-out: Inhibition zone (IZ)
Protocol: as §1, §2, §3, §4, §5, §6
(§7) Bacteria were grown on nutrient agar medium, while fungi and yeast were grown on Sabouraud agar medium. […]

Fusarium oxysporum [6] = test: Inhibition zone, agar plate diffusion; type: cell-based; conditions: read-out: Inhibition zone (IZ)
Protocol: as §1, §2, §3, §4, §5, §6, §7

Salmonella typhi [7] = test: Inhibition zone, agar plate diffusion; type: cell-based; conditions: Salmonella enterica, St, mm ± standard deviation, sample at 0.5 mg/mL, read-out: Inhibition zone (IZ)
Protocol: as §1, §2, §3, §4, §5, §6, §7

Staphylococcus aureus [8] = test: Inhibition zone, agar plate diffusion; type: cell-based; conditions: read-out: Inhibition zone (IZ)
Protocol: as §1, §2, §3, §4, §5, §6, §7

Bacillus subtilis [9] = test: MIC/MBC, paper disk diffusion; type: cell-based; conditions: for Fold more potent than Tetracycline (MIC) / MBC: B. subtilis; for MIC / MBC: Bacillus subtilis
Protocol: as §1
(§8) In Vitro Antimicrobial Activities […]
(§9) DMSO was used for dissolving […]
(§10) the tested microorganisms.
(§11) The minimum inhibitory concentration (MIC), the minimum bactericidal concentration (MBC, µg/ml) and […]
(§12) and 9b) were determined by the conventional technique termed paper disk diffusion, by applying paper […]
(§13) Bacteria were grown on nutrient agar medium, while fungi and yeast were grown on Sabouraud agar medium. The purified streptomycin was dissolved in […]
(§14) inoculated with test organism. Growth inhibition was examined after 24 hr. from incubation at 37 °C for bacteria and after 72 hr. incubation at 27 °C for fungi and yeast. Each test was repeated three times. MIC was expressed as the lowest concentration inhibiting test organism’s growth. […]

Enterococcus faecalis [10] = test: MIC/MBC, paper disk diffusion; type: cell-based; conditions: for MBC: E. faecalis
Protocol: as §1, §8, §9, §10, §11, §12, §13, §14

Escherichia coli [11] = test: MIC/MBC, paper disk diffusion; type: cell-based; conditions: Escherichia coli; for MBC: E. coli
Protocol: as §1, §8, §9, §10, §11, §12, §13, §14

Pseudomonas aeruginosa [12] = test: MIC/MBC, paper disk diffusion; type: cell-based; conditions: Pseudomonas aeruginosa; for MBC: P. aeruginosa
Protocol: as §1, §8, §9, §10, §11, §12, §13, §14

Salmonella typhi [13] = test: MIC/MBC, paper disk diffusion; type: cell-based; conditions: Salmonella enterica, S. typhi; for MBC: read-out: MBC
Protocol: as §1, §8, §9, §10, §11, §12, §13, §14

Staphylococcus aureus [14] = test: MIC/MBC, paper disk diffusion; type: cell-based; conditions: Staphylococcus aureus; for MBC: S. aureus
Protocol: as §1, §8, §9, §10, §11, §12, §13, §14

Candida albicans [15] = test: MIC/MFC, paper disk diffusion; type: cell-based; conditions: Candida albicans
Protocol: as §1, §8, §9, §10, §11, §12, §13, §14

Fusarium oxysporum [16] = test: MIC/MFC, paper disk diffusion; type: cell-based; conditions: Fusarium oxysporum
Protocol: as §1, §8, §9, §10, §11, §12, §13, §14

[17] = test system: hepatocellular carcinoma cell line (HepG2); test: Antiproliferative activity, MTT assay; type: cell-based, human; conditions: Homo sapiens, HepG2, 48 h, read-out: IC50 HepG-2
Protocol: (§15) 3-[4, 5-Dimethyl-2-thiazolyl)-2, 5-diphenyl-2 H-tetrazolium bromide (MTT) protocol is based on the cleavage of the tetrazolium salt by mitochondrial dehydrogenases in viable cells. Cells were dispensed in a 96 well sterile microplate (5 x 10^4 cells/well), and incubated at 37 °C with series of different concentrations, in DMSO, of each tested compound or Doxorubicin ® (positive control) for 48 h in a serum free medium prior to the MTT assay. After incubation, media were carefully removed, 40 µL of MTT (2.5 mg/mL) were added to each well and then incubated for an additional 4 h. The purple formazan dye crystals were solubilized by the addition of 200 µL of DMSO. The absorbance was measured at 590 nm using a SpectraMax® Paradigm® Multi-Mode microplate reader. The relative cell viability was expressed as the mean percentage of viable cells compared to the untreated control cells.
(§16) All experiments were conducted in triplicate and repeated in three different days. All the values were represented as mean ± SD. IC 50s were determined by probit analysis using SPSS software program (SPSS

[18] = test system: mammary gland breast cancer cell line (MCF-7); test: Antiproliferative activity, MTT assay; type: cell-based, human; conditions: Homo sapiens, MCF7, 48 h, read-out: IC50 MCF-7
Protocol: as §15, §16

[19] = test system: S. aureus ATCC 43300 (MRSA); test: Inhibition zone against MDRB, agar plate diffusion; type: cell-based
S. aureus ATCC 33591 [20] = test: Inhibition zone against MDRB, agar plate diffusion; type: cell-based
E. coli ATCC BAA-196 [21] = test: Inhibition zone against MDRB, agar plate diffusion; type: cell-based
[22] = test system: P. aeruginosa ATCC BAA-2111; test: Inhibition zone against MDRB, agar plate diffusion; type: cell-based
E. coli ATCC BAA-196 [23] = test: MIC/MBC against MDRB, paper disk diffusion; type: cell-based; conditions: Escherichia coli, ATCCBAA196
Source text: (§17) The inhibition zone (IZ, mm±standard deviation) of pyrazole Schiff bases ( 6b, 7b, 7c, 8a, 8d and 9b) was
(§18) measurement according to the agar plate diffusion method against a panel of multidrug-resistant bacteria
(MDRB). […]

[24] = test system: P. aeruginosa ATCC BAA-2111; test: MIC/MBC against MDRB, paper disk diffusion; type: cell-based; conditions: Pseudomonas aeruginosa, ATCCBAA2111
Source text: as §17, §18
(MDRB). […]

S. aureus ATCC 33591 [25] = test: MIC/MBC against MDRB, paper disk diffusion; type: cell-based; conditions: Staphylococcus aureus, ATCC33591
Source text: as §17, §18
(MDRB). […]

[26] = test system: S. aureus ATCC 43300 (MRSA); test: MIC/MBC against MDRB, paper disk diffusion; type: cell-based; conditions: Staphylococcus aureus
Source text: as §17, §18
(MDRB). […]

Row | Compound | zone of inhibition at 500 µg/mL (Bacillus subtilis [1]) [mm] | zone of inhibition at 500 µg/mL (Enterococcus faecalis [2]) [mm] | zone of inhibition at 500 µg/mL (Escherichia coli [3]) [mm] | zone of inhibition at 500 µg/mL (Pseudomonas aeruginosa [4]) [mm] | zone of inhibition at 500 µg/mL (Candida albicans [5]) [mm] | zone of inhibition at 500 µg/mL (Fusarium oxysporum [6]) [mm] | zone of inhibition at 500 µg/mL (Salmonella typhi [7]) [mm] | zone of inhibition at 500 µg/mL (Staphylococcus aureus [8]) [mm] | Fold more potent than Tetracycline (MIC) (Bacillus subtilis [9]) [fold] | MIC (Bacillus subtilis [9]) [µg/mL] | MBC (Bacillus subtilis [9]) [µg/mL] | MIC (Enterococcus faecalis [10]) [µg/mL] | MBC (Enterococcus faecalis [10]) [µg/mL] | MIC (Escherichia coli [11]) [µg/mL] | MBC (Escherichia coli [11]) [µg/mL] | MIC (Pseudomonas aeruginosa [12]) [µg/mL] | MBC (Pseudomonas aeruginosa [12]) [µg/mL] | MIC (Salmonella typhi [13]) [µg/mL] | MBC (Salmonella typhi [13]) [µg/mL] | MIC (Staphylococcus aureus [14]) [µg/mL] | further results
1 | COc1ccc(Nc2n[nH]c(N=Cc3ccc(N4CCCCC4)cc3)c2C(=O)Nc2ccc(Cl)cc2)cc1 [8d, N-(p-Chlorophenyl)-3-(p-methoxyphenylamino)-5-(4-(piperidin-1-yl)benzylideneamino)-1H-pyrazole-4-carboxamide] | 24 ± 0.5 | 23 ± 0.65 | 26 ± 0.11 | 21 ± 0.2 | 25 ± 0.33 | 21 ± 0.16 | 23 ± 0.65 | 25 ± 0.77 | 8 | 3.9 (≈ 7.37 µM) | 6.63 (≈ 12.5 µM) | 15.6 (≈ 29.5 µM) | 31.2 (≈ 59.1 µM) | 7.81 (≈ 14.8 µM) | 15.6 (≈ 29.5 µM) | 27.8 (≈ 52.5 µM) | 55.5 (≈ 105 µM) | 18.5 (≈ 35 µM) | 36.5 (≈ 69 µM) | 7.81 (≈ 14.8 µM) | MBC (Staphylococcus aureus [14]): 15.6 µg/mL (≈ 29.5 µM); MFC (Candida albicans [15]): 17.6 µg/mL (≈ 33.2 µM); MIC (Candida albicans [15]): 9.25 µg/mL (≈ 17.5 µM); MFC (Fusarium oxysporum [16]): 56.2 µg/mL (≈ 106 µM); MIC (Fusarium oxysporum [16]): 31.2 µg/mL (≈ 59.1 µM); IC50 [17]: 2.63 ± 0.44 µM; IC50 [18]: 3.69 ± 0.22 µM; Mean Diameter of Inhibition Zone against MDRB [19]: 18 ± 0.5 mm; Mean Diameter of Inhibition Zone against MDRB (S. aureus ATCC 33591 [20]): 21 ± 0.23 mm; Mean Diameter of Inhibition Zone against MDRB (E. coli ATCC BAA-196 [21]): 16 ± 0.11 mm; Mean Diameter of Inhibition Zone against MDRB [22]: 25 ± 0.99 mm; MBC (E. coli ATCC BAA-196 [23]): 31.2 µg/mL (≈ 59.1 µM); MIC (E. coli ATCC BAA-196 [23]): 15.6 µg/mL (≈ 29.5 µM); MBC [24]: 11.9 µg/mL (≈ 22.4 µM); MIC [24]: 6.25 µg/mL (≈ 11.8 µM); MBC (S. aureus ATCC 33591 [25]): 7.41 µg/mL (≈ 14 µM); MIC (S. aureus ATCC 33591 [25]): 3.9 µg/mL (≈ 7.37 µM); MBC [26]: 31.2 µg/mL (≈ 59.1 µM); MIC [26]: 15.6 µg/mL (≈ 29.5 µM)
2 | COc1ccc(Nc2n[nH]c(N=Cc3c(C)n(C)n(-c4ccccc4)c3=O)c2C(=O)Nc2ccccc2)cc1 [6b, 5-((1,5-Dimethyl-3-oxo-2-phenyl-2,3-dihydro-1H-pyrazol-4-yl)methyleneamino)-3-(p-methoxyphenylamino)-N-phenyl-1H-pyrazole-4-carboxamide] | 30 ± 0.5 | 29 ± 0.55 | 25 ± 0.81 | 24 ± 0.2 | 22 ± 0.56 | 18 ± 0.15 | 20 ± 0.16 | 24 ± 0.12 | 4 | 7.81 (≈ 15 µM) | 14.1 (≈ 26.9 µM) | 9.25 (≈ 17.7 µM) | 18.5 (≈ 35.5 µM) | 62.5 (≈ 120 µM) | 87.5 (≈ 168 µM) | 31.2 (≈ 59.9 µM) | 53.1 (≈ 102 µM) | 15.6 (≈ 29.9 µM) | 28.1 (≈ 53.9 µM) | 15.6 (≈ 29.9 µM) | MBC (Staphylococcus aureus [14]): 31.2 µg/mL (≈ 59.9 µM); MFC (Candida albicans [15]): 53.1 µg/mL (≈ 102 µM); MIC (Candida albicans [15]): 31.2 µg/mL (≈ 59.9 µM); MFC (Fusarium oxysporum [16]): 88.8 µg/mL (≈ 170 µM); MIC (Fusarium oxysporum [16]): 55.5 µg/mL (≈ 106 µM); IC50 [17]: 3.42 ± 0.17 µM; IC50 [18]: 5.09 ± 0.52 µM; Mean Diameter of Inhibition Zone against MDRB [19]: 21 ± 0.21 mm; Mean Diameter of Inhibition Zone against MDRB (E. coli ATCC BAA-196 [21]): 25 ± 0.15 mm; Mean Diameter of Inhibition Zone against MDRB [22]: 21 ± 0.66 mm; MBC (E. coli ATCC BAA-196 [23]): 7.41 µg/mL (≈ 14.2 µM); MIC (E. coli ATCC BAA-196 [23]): 3.9 µg/mL (≈ 7.48 µM); MBC [24]: 16 µg/mL (≈ 30.6 µM); MIC [24]: 7.81 µg/mL (≈ 15 µM); MBC (S. aureus ATCC 33591 [25]): 15.6 µg/mL (≈ 29.9 µM); MIC (S. aureus ATCC 33591 [25]): 7.81 µg/mL (≈ 15 µM); MBC [26]: 11.9 µg/mL (≈ 22.8 µM); MIC [26]: 6.25 µg/mL (≈ 12 µM)

— paper PMC7321065, “Discovery of New Schiff Bases Tethered Pyrazole Moiety: Design, Synthesis, Biological Evaluation, and Molecular Docking Study as Dual Targeting DHFR/DNA Gyrase Inhibitors with Immunomodulatory Activity” (Molecules, 2020)
